Where “and” joins values, the source holds several entries; their conditions need not be identical. Identical values can stand only once. Where a SMILES comes first, the peptide text is derived from it. Bridges are numbered along the chain shown (N, C = ends).
Experiments:
[1] = tested on: cerebellar granule neurons; type: cell-based
[2] = tested on: cerebellar granule neurons
[3] = molecular target: TrkB receptor on cultured cerebellar granule neurons

Row | Molecule | internalization of Hc-TeNT fragment (area occupied by Hc-TeNT) [1] | percentage of Hc-TeNT in colocalization with TrkB [1] | percentage of TrkB in co-localization with Hc-TeNT [1] | competition with the Hc-TeNT fragment for binding to cell membrane [2] | IC50 ([2]; 3 h) | IC50 (concentration of unlabeled competitor necessary to displace 50% of specifically bound Hc-TeNT) ([2]; 3 h) | IC50 [3]
1 | CSCC[C@@H]1NC(=O)CNC(=O)[C@H](CC(N)=O)NC(=O)[C@H](CC(N)=O)NC(=O)[C@H](CCSC)NC(=O)[C@H](Cc2c[nH]cn2)NC(=O)[C@H]([C@@H](C)O)NC(=O)[C@@H]2CCCN2C(=O)[C@H](CC(N)=O)NC(=O)[C@H](CC(=O)O)NC(=O)[C@H](CC(C)C)NC(=O)[C@H](CCC(N)=O)NC(=O)[C@H](CC(C)C)NC(=O)[C@@H](NC(=O)CN)CSSC[C@@H](C(=O)N[C@@H](CC(N)=O)C(=O)N[C@@H](CC(N)=O)C(=O)NCC(=O)O)NC(=O)[C@H](Cc2c[nH]cn2)NC(=O)[C@H]([C@@H](C)O)NC(=O)[C@@H]2CCCN2C(=O)[C@H](CC(N)=O)NC(=O)[C@H](CC(=O)O)NC(=O)[C@H](CC(C)C)NC(=O)[C@H](CCC(N)=O)NC(=O)[C@H](CC(C)C)NC1=O [d5 peptide] (H-GCLQLDNPTHMNNGMLQLDNPTHCNNG-OH; disulfide 2-24) | seems not to affect | about 44% | 51% | capable to compete | 108 µM | 317.3 µg/mL | –
2 | BDNF (from UniProt P23560 129-247) (ligand) | – | – | – | – | – | – | 4.2 nM and 0.06 µg/mL

From patent EP3144007A1 (priority 2015, dated 2017)
